According to patent US20070213291A1, “Therapeutically useful synthetic oligonucleotides” (priority 1999, published 2007):

Legend:
[1] = test system: Jurkat human leukemia T cells; experiment: Inhibition of Jurkat human leukemia T cell proliferation (MTT reduction); assay type: cell-based; conditions: 100 μg/ml sequence, 48 h, 2.5×10^5 cells/ml
Summary of the method: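 Read-out is MTT absorbance at 570 nm after 48 h. Sequences of 2 to 45 bases (A, C, G, T) tested at 100 μg/ml against untreated control, with 2.5×10^5 Jurkat cells/ml held at 37° C under 5% CO2.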

[2] = test system: MCF-7 human breast cancer cells; experiment: Inhibition of MCF-7 cell proliferation (MTT); assay type: cell-based; conditions: 100 μg/ml, 48 h, 5×10^5 cells/ml
Summary of the method: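 Cells at 2.5×10^5 cells/ml (GT 3- and 6-base series at 5×10^5 cells/ml) treated with 100 μg/ml of 2-45-base oligonucleotide sequences versus untreated control for 48 h at 37 °C, 5% CO2. Proliferation read by MTT reduction at 570 nm.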

[3] = test system: LNCaP human prostate cancer cells; experiment: Inhibition of LNCaP cell proliferation (MTT); assay type: cell-based; conditions: 100 μg/ml, 48 h, 5×10^5 cells/ml
Description: (§1) Cells were seeded in 6 (1 ml/well), 24 (0.5 ml/well) or 96 (0.1 ml/well) well flat-bottom microplates and were maintained at 37° C. in a 5% CO2 atmosphere. Unless stated otherwise, 2.5×10^5 cells/ml were incubated with 0 μg/ml (control) and 100 μg/ml (treated) of 2 to 45 base sequences containing A, C, G and T for 48 h.
(§2) Cell proliferation was measured using dimethylthiazol-diphenyl-tetrazolium (MTT) reduction (Mosman et al. J. Immunol. Methods 65:55, 1983). MTT was measured at a wavelength of 570 nm using a multiplate spectrophotometer reader (ELX800, Bio-TEK Instruments Inc., Winooski, Vt.).
LNCaP prostate cancer cells are a TGF-beta 1 receptor negative, […], metastatic human solid tumor model. LNCaP cells (5×10^5 cells/ml) were incubated with 6 base GT sequences (Table 9).

[4] = test system: EL-4 murine T lymphoma cells; experiment: Inhibition of EL-4 cell proliferation (MTT); assay type: cell-based; conditions: 100 μg/ml, 48 h
Description: as §1, §2
EL-4 murine lymphoma T cells are a suspension tumor model. EL-4 murine lymphoma T cells were incubated with 6, 18, 27 and 33 base GT sequences and with a 15 base ACG sequence (Table 18).

[5] = target: T1, telomerase (Homo sapiens, UniProt O14746); experiment: PCR-telomeric repeat amplification protocol (TRAP) on Jurkat T cell extracts; assay type: biochemical; conditions: concentrations between 1 and 100 μg/ml, extracts from 2×10^5 Jurkat T cells
T1 construct: extracts from 2×10^5 Jurkat T cells were assayed using the PCR-telomeric repeat amplification protocol (TRAP); endogenous in cells; host or cells: Jurkat T cells (cell extract)
T1 sequence (O14746 whole entry): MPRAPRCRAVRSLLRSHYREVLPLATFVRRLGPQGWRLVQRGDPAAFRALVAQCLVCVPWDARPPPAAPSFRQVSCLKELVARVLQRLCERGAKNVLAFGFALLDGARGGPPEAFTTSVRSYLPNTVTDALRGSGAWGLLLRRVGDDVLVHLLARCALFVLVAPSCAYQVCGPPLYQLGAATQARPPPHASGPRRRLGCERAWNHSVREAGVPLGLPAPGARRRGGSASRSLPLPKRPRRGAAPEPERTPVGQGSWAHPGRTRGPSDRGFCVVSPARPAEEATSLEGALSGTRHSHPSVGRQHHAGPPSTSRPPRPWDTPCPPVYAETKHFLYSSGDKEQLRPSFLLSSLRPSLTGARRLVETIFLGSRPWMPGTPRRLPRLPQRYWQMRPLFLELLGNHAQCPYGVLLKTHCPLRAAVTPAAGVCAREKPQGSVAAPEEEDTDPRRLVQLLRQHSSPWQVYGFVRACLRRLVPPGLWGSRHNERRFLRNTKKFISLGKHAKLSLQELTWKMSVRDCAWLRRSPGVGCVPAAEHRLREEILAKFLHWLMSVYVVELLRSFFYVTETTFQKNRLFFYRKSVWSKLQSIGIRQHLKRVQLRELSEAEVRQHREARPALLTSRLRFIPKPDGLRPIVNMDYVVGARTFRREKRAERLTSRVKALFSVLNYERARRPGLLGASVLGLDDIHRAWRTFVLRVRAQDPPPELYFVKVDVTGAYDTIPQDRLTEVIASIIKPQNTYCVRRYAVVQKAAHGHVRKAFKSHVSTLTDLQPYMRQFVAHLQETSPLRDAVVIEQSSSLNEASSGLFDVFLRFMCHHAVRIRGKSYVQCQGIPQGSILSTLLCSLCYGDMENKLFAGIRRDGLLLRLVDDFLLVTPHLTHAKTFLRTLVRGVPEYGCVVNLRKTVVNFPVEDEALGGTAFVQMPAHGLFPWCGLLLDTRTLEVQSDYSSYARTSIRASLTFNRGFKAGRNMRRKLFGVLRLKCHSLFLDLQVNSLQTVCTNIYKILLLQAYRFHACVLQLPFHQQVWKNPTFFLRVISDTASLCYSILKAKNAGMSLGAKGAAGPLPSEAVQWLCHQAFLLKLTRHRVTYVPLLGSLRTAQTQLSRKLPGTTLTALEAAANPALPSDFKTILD
Description: To determine telomerase activity, extracts from 2×10^5 Jurkat T cells were assayed using the PCR-telomeric repeat amplification protocol (TRAP) (Roche, Laval, Québec, Canada).

[6] = test system: Jurkat human leukemia T cells; experiment: Cell cycle stage in Jurkat cells (propidium iodide flow cytometry); assay type: cell-based; conditions: Jurkat, 24 h, 100 μg/ml
Summary of the method: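 Phase distribution (G0/G1, early, mid and late S, G2/M) came from flow cytometry with doublet discrimination on propidium iodide-stained nuclei. Jurkat cells were given 24 h exposure to 2–45-base oligonucleotides, or at 1×10^6 cells/ml to single 6-base GT or AC strands heated 10 min at 65 °C or 1:1 hybridized duplex.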

[7] = test system: THP-1 human acute monocytic leukemia cells; experiment: Cytokine production by THP-1 cells (ELISA); assay type: cell-based; conditions: THP-1, 1×10^6 cells, 100 μg/ml, 48 h; for ↑ IL-12 (fold increase treated vs control cells): p70 complex and free p40
Summary of the method: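 Read-out is fold increase in supernatant cytokine versus control cells, measured by ELISA (IL-12 ELISA counts p70 complex plus free p40). Unless noted, sequences were tested at 100 μg/ml on 1×10^6 cells, incubated 48 h, 37° C, 5% CO2.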

[8] = test system: IMC tumor; conditions: premixed with IMC cells and injected into CDF-1 mice; cited from earlier work
[9] = test system: OVCAR-3 human ovarian cancer cells; experiment: Inhibition of OVCAR-3 cell proliferation (MTT); assay type: cell-based; conditions: 100 μg/ml, 48 h, 5×10^5 cells/ml
Description: as §1, §2
OVCAR-3 ovarian cancer cells are a p53 mutated, p21/waf-1/Cip deleted, metastatic human solid tumor model. OVCAR-3 cells (5×10^5 cells/ml) were incubated with 2, 6 and 18 base GT sequences and with a 6 base AGT sequence (Table 11).

[10] = test system: SK-OV-3 human ovarian cancer cells; experiment: Inhibition of SK-OV-3 cell proliferation (MTT); assay type: cell-based; conditions: 100 μg/ml, 48 h, 5×10^5 cells/ml
Description: as §1, §2
SK-OV-3 ovarian cancer cells are a p53 mutated, p21/waf-1/Cip deleted, p15^ink4B deleted, p16^Ink4 deleted, metastatichuman solid tumor model. SK-OV-3 cells (5×10^5 cells/ml) were incubated with 2, 6 and 18 base GT sequences (Table 12).

[11] = test system: MCF-7 human breast cancer cells; experiment: Cell cycle stage in MCF-7 cells (propidium iodide flow cytometry); assay type: cell-based; conditions: MCF-7, 5×10^5 cells/ml, 24 h
Description: Cell cycle stage was determined using a […]™ PLUS DNA commercial kit (Becton Dickinson). Briefly, nuclei from cells were obtained by dissolving the cell membrane in a nonionic detergent, eliminating the cell cytoskeleton and nuclear proteins with trypsin, digesting the cellular RNA with RNase and stabilizing the nuclear chromatin with spermine. Propidium iodide was added to the cell nuclei and their fluorescence was analyzed in a flow cytometer equipped with electronic doublet discrimination capability (FACSCalibur, Becton Dickinson, San Jose, Calif.). Accumulation of cells in G0/G1, early S (SE), mid S (SM), late S (SL) or G2/M phases of the cell cycle was analyzed using MODFIT LT software (Verity Software House Inc., Topsham, Mass.).
Exponentially growing Jurkat human leukemia T cells (Table 28) and MCF-7 human breast cancer cells (5×10^5 cells/ml) (Table 29) were incubated for 24 h with 2, 6, 15, 18, 27 and 45 base sequences containing A, C, G and T. The cells were collected and centrifuged and cell cycle stage was determined.

[12] = test system: EL-4 murine T lymphoma cells; experiment: EL-4 murine T lymphoma in C57/BL6 mice; assay type: in vivo; conditions: after 4 weeks of treatment, compared with group 1 (saline)
Description: EL-4 murine T lymphoma cells are implanted into C57/BL6 mice. The mice are divided into 6 groups of 10 mice. On day 0, group 1 mice receive saline, group 2 mice receive 3 base GT SEQ ID NO:8, group 3 mice receive 6 base SEQ ID NO:25, group 4 mice receive 6 base AG SEQ ID NO:45, group 5 mice receive 18 base GT SEQ ID NO: 18 and group 6 mice receive 27 base GT SEQ ID NO:1. After 4 weeks of treatment, the mice are sacrificed and tumor mass is determined.

[13] = test system: Burkitt lymphoma cells; conditions: Mata et al. 1997; cited from earlier work

Sequence | % INHIBITION of Jurkat human leukemia T cell proliferation [1] | % INHIBITION of EL-4 murine T lymphoma cell proliferation [4] | % of cells in phase: G0/G1 [6] | % of cells in phase: G2/M [6] | % of cells in phase: SE [6] | % of cells in phase: SL [6] | % of cells in phase: SM [6] | Arrest (cell cycle) [6] | ↑ IL-12 (fold increase treated vs control cells) [7] | ↑ IL-6 (fold increase treated vs control cells) [7] | inhibition of IMC tumor growth [8] | % INHIBITION of OVCAR-3 human ovarian cancer cell proliferation [9] | % INHIBITION of SK-OV-3 human ovarian cancer cell proliferation [10] | % cells in phase: G0/G1 [11] | % cells in phase: G2/M [11] | % cells in phase: SE [11] | % cells in phase: SL [11] | % cells in phase: SM [11] | Arrest (cell cycle) [11] | further results
GGGTGG [SEQ ID NO:25 phosphorothioate] | 0% | −8% | 34.9% | 24.7% | 14.8% | 10.6% | 15.0% | None | 0.0x | – | – | – | – | – | – | – | – | – | – | % INHIBITION of MCF-7 human breast cancer cell proliferation [2]: 12%; % INHIBITION of LNCaP human prostate cancer cell proliferation [3]: −8%; anti-telomerase activity [5]: Neither GT SEQ ID NO:25-phosphorothioate nor GT SEQ ID NO:49-phosphodiester showed any anti-telomerase actvity; ↑ IL-12 (fold increase treated vs control cells) ([7]; listed as GsGsGsTsGsGs): 0 x
AAAAGAAGTGGGGTGCCCCCACGATCACCAACGATGGTGTGTCCA (unmodified DNA) [BCG A-2, reference compound] | 19% | – | – | – | – | – | – | – | 1.6x | 3.9x | 88% | – | – | – | – | – | – | – | – | –
ACCGATGACGTCGCCGGTGACGGCAACACGACGGCCACCGTGCTG (unmodified DNA) [BCG A-4, reference compound] | 9% | – | – | – | – | – | – | – | 0.9x | 1.8x | 37% | – | – | – | – | – | – | – | – | –
TTAGGG (phosphodiester backbone) [SEQ ID NO:49, reference compound] | 45% | – | 24.6% | 12.8% | 37.2% | 5.9% | 19.5% | Mid SM | 2.0x | 6.7x | – | 15% | 11% | 20.0% | 15.0% | 18.6% | 20.7% | 25.7% | Mid SM | anti-telomerase activity ([5]; listed as SEQ ID NO:49-phosphodiester): Neither GT SEQ ID NO:25-phosphorothioate nor GT SEQ ID NO:49-phosphodiester showed any anti-telomerase actvity
GTGTGTGTGTGTGTGTGT (unmodified DNA) [SEQ ID NO:18] | 60% | −2% | 24.2% | 16.4% | 26.7% | 8.7% | 24.0% | Mid SM | – | 2.8x | – | 10% | 6% | 25.3% | 15.7% | 31.6% | 10.5% | 16.9% | Mid SM | tumor mass [12]: less tumor mass than group 1 mice
TTAGGG (phosphorothioate backbone) [SEQ ID NO:49-phosphorothioate] | – | – | – | – | – | – | – | – | – | – | – | – | – | – | – | – | – | – | – | induction of apoptosis in Burkitt lymphoma cells [13]: induce apoptosis in Burkitt lymphoma cells; inhibition of telomerase activity [13]: inhibit telomerase activity
